Values of other authors in publication PMC3388044, “Probing of Exosites Leads to Novel Inhibitor Scaffolds of HCV NS3/4A Proteinase” (PLoS ONE, 2012).
Like-named read-outs stand apart in the source and are kept apart here.

Experiments:
[1] = test system: HCV replicon (NS3/4A D168A); details: cited from earlier work
HCV replicon (WT NS3/4A) = details: HCV replicon with luciferase readout; cited from earlier work
NS3/4A R155K = details: cited from earlier work
[2] = test system: HCV replicon (NS3/4A A156T); details: cited from earlier work
[3] = test system: HCV replicon (NS3/4A R155K); details: mutant HCV replicon with luciferase readout; cited from earlier work
[4] = test system: HCV replicon (NS3/4A V36M); details: mutant HCV replicon with luciferase readout; cited from earlier work
NS3/4A V36M = details: cited from earlier work
NS3/4A D168A = details: cited from earlier work
NS3/4A (WT) = details: purified recombinant WT NS3/4A in vitro; read-out: WT IC50 (purified enzyme); cited from earlier work
NS3/4A = biological target: NS3/4A; parameters: method as in PMID 19505593; details: cited from earlier work
[5] = fold change vs WT, mutant HCV replicon
[6] = mutant HCV replicon with luciferase readout
[7] = fold change vs WT, purified recombinant enzyme

Compound: CCC[C@H](NC(=O)[C@@H]1[C@H]2CCC[C@H]2CN1C(=O)[C@@H](NC(=O)[C@@H](NC(=O)c1cnccn1)C1CCCCC1)C(C)(C)C)C(=O)C(=O)NC1CC1 [Telaprevir, telaprevir]
- D168A FC (replicon) [1, 5]: 0.4
- IC50 [1, 6]: 46 nM
- IC50 (HCV replicon (WT NS3/4A)): 150 nM
- R155K FC (purified enzyme) (NS3/4A R155K; [7]): 4.8
- IC50 (NS3/4A R155K; purified recombinant mutant NS3/4A in vitro, read-out: R155K IC50 (purified enzyme)): 115 nM
- A156T FC (replicon) [2, 5]: 105
- IC50 [2, 6]: 20300 nM
- IC50 [3]: 1470 nM
- IC50 [4]: 886 nM
- V36M FC (purified enzyme) (NS3/4A V36M; [7]): 11.3
- IC50 (NS3/4A V36M; purified recombinant mutant NS3/4A in vitro, read-out: V36M IC50 (purified enzyme)): 270 nM
- D168A FC (purified enzyme) (NS3/4A D168A; [7]): 0.4
- IC50 (NS3/4A D168A; purified recombinant mutant NS3/4A in vitro, read-out: D168A IC50 (purified enzyme)): 9 nM
- IC50 (NS3/4A (WT)): 24 nM
- Ki (NS3/4A; improved KI after fast covalent bond formation, read-out: KI after covalent bond formation): ~40 nM
- Ki (NS3/4A; initial non-covalent binding step, read-out: KI, non-covalent binding step): ~6000 nM
